{"source": "paper PMC6483395", "about": "(Synlett : accounts and rapid communications in synthetic …, 2017)", "target": "T1, NapH1 (Streptomyces sp. CNQ-525, UniProt A7KH27)", "T1 sequence (A7KH27 42-527)": "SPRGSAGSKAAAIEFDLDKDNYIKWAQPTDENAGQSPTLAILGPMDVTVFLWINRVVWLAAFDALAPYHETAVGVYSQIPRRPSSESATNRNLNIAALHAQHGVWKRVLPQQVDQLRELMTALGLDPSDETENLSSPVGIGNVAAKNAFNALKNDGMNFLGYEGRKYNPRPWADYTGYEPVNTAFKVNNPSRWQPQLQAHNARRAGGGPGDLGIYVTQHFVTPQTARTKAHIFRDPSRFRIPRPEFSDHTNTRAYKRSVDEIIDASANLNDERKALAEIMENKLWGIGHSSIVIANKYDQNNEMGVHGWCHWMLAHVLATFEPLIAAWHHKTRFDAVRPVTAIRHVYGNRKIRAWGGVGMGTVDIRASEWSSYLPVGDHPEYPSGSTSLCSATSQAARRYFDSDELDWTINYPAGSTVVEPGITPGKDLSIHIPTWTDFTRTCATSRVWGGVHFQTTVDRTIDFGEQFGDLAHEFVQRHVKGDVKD", "test": "crystal structure", "type": "binding", "conditions": "homodimer; structures with and without vanadate", "data": [{"smiles": "[O]=[V]([OH])([OH])[OH]", "note": "[vanadate]", "values": [{"measurement": "crystal structure", "result": "we solved the three-dimensional structures of the homodimeric NapH1 with and without vanadate"}]}]}
